Source: PubChem BioAssay AID1963437 (Molecular Pharmacology Branch, DTP, NCI, 2024)
pIC50: −log10 of the molar value.

System: OVCAR-8 complex spheroid, growth inhibition
Experiment: Anticancer human tumor OVCAR-8 cell line growth inhibition [Asc];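 further: spheroids exposed to agents for 7 days before readout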;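 on viability, T/C: percent viability relative to DMSO vehicle wells taken as 100%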
Conditions: for pIC50: curve of first compound; for viability, T/C: stronger effect = lower value
Method in brief: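 Concentration series start at each agent's clinical Cmax, or at 10 microM when none is established, and drop in half-log steps; agents are applied alone or together to complex spheroids built with HUVEC and hMSC.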

[1] = second compound 0.0316 µM, first compound 0.0316 µM
[2] = second compound 0.0316 µM, first compound 0.1 µM
[3] = second compound 0.1 µM, first compound 0.0316 µM
[4] = second compound 0.1 µM, first compound 0.1 µM
[5] = second compound 0.316 µM, first compound 0.0316 µM
[6] = second compound 0.316 µM, first compound 0.1 µM
[7] = second compound 1 µM, first compound 0.0316 µM
[8] = second compound 1 µM, first compound 0.1 µM

`NC1CCC(NC2CC2c2ccccc2)CC1` (stereo unspecified) + CCN1C(C(=O)NC23CCC(C(=O)O)(CC2)CC3)C(c2cccc(Cl)c2F)C2(C(=O)Nc3cc(Cl)ccc32)C12CCCCC2 was tested, and the pIC50 (second compound 0.00949 µM) was under 7.00, the pIC50 (second compound 0.03 µM) was under 7.00 and the pIC50 (second compound 0.0949 µM) was under 7.00. It also gave a pIC50 (second compound 0.3 µM) of under 7.00, a pIC50 (second compound 0.949 µM) of under 7.00 and a pIC50 (second compound 3 µM) of under 7.00. For the same compound, the viability, T/C (second compound 0.00949 µM, first compound 0.000316 µM) was 81.2%, the viability, T/C (second compound 0.00949 µM, first compound 0.001 µM) was 113% and the viability, T/C (second compound 0.00949 µM, first compound 0.00316 µM) was 91.4%. For the same compound, the viability, T/C (second compound 0.00949 µM, first compound 0.01 µM) was 109%, the viability, T/C (second compound 0.00949 µM, first compound 0.0316 µM) was 84.8% and the viability, T/C (second compound 0.00949 µM, first compound 0.1 µM) was 90.7%. For the same compound, the viability, T/C (second compound 0.03 µM, first compound 0.000316 µM) was 93.7%, the viability, T/C (second compound 0.03 µM, first compound 0.001 µM) was 90.2% and the viability, T/C (second compound 0.03 µM, first compound 0.00316 µM) was 96.5%. It also gave a viability, T/C (second compound 0.03 µM, first compound 0.01 µM) of 93.8%, a viability, T/C (second compound 0.03 µM, first compound 0.0316 µM) of 98.5% and a viability, T/C (second compound 0.03 µM, first compound 0.1 µM) of 101%. For the same compound, the viability, T/C (second compound 0.0949 µM, first compound 0.000316 µM) was 95.4%, the viability, T/C (second compound 0.0949 µM, first compound 0.001 µM) was 99.5% and the viability, T/C (second compound 0.0949 µM, first compound 0.00316 µM) was 90.2%. It also gave a viability, T/C (second compound 0.0949 µM, first compound 0.01 µM) of 96.5%, a viability, T/C (second compound 0.0949 µM, first compound 0.0316 µM) of 98.5% and a viability, T/C (second compound 0.0949 µM, first compound 0.1 µM) of 90.3%. For the same compound, the viability, T/C (second compound 0.3 µM, first compound 0.000316 µM) was 98.9%, the viability, T/C (second compound 0.3 µM, first compound 0.001 µM) was 108% and the viability, T/C (second compound 0.3 µM, first compound 0.00316 µM) was 109%. The viability, T/C (second compound 0.3 µM, first compound 0.01 µM) was 110%, the viability, T/C (second compound 0.3 µM, first compound 0.0316 µM) was 91.1% and the viability, T/C (second compound 0.3 µM, first compound 0.1 µM) was 103%. The viability, T/C (second compound 0.949 µM, first compound 0.000316 µM) was 89.2%, the viability, T/C (second compound 0.949 µM, first compound 0.001 µM) was 109% and the viability, T/C (second compound 0.949 µM, first compound 0.00316 µM) was 88%. The viability, T/C (second compound 0.949 µM, first compound 0.01 µM) was 105%, the viability, T/C (second compound 0.949 µM, first compound 0.0316 µM) was 106% and the viability, T/C (second compound 0.949 µM, first compound 0.1 µM) was 97.4%. It also gave a viability, T/C (second compound 3 µM, first compound 0.000316 µM) of 113%, a viability, T/C (second compound 3 µM, first compound 0.001 µM) of 98.2% and a viability, T/C (second compound 3 µM, first compound 0.00316 µM) of 107%. For the same compound, the viability, T/C (second compound 3 µM, first compound 0.01 µM) was 110%, the viability, T/C (second compound 3 µM, first compound 0.0316 µM) was 119% and the viability, T/C (second compound 3 µM, first compound 0.1 µM) was 109%.

In the case of `C=CC(=O)N1CCN(c2nc(=O)n(-c3c(C)ccnc3C(C)C)c3nc(-c4c(O)cccc4F)c(F)cc23)C(C)C1` (stereo unspecified) + Cc1c(S(C)(=O)=O)c(-c2cc(F)cc(N3CCN(c4ccc(NS(=O)(=O)c5ccc(NC(CCN6CCC(C(=O)OCCCP(=O)(O)O)CC6)CSc6ccccc6)c(S(=O)(=O)C(F)(F)F)c5)cc4)CC3)c2)c(-c2ccc(Cl)cc2)n1C(C)C, the pIC50 (second compound 0.0316 µM) was under 5.00, the pIC50 (second compound 0.1 µM) was under 5.00 and the pIC50 (second compound 0.316 µM) was under 5.00. The pIC50 (second compound 1 µM) was under 5.00, the pIC50 (second compound 3.16 µM) was under 5.00 and the pIC50 (second compound 10 µM) was under 5.00. For the same compound, the viability, T/C [1] was 109%, the viability, T/C [2] was 113% and the viability, T/C (second compound 0.0316 µM, first compound 0.316 µM) was 93.3%. It also gave a viability, T/C (second compound 0.0316 µM, first compound 1 µM) of 95%, a viability, T/C (second compound 0.0316 µM, first compound 3.16 µM) of 106% and a viability, T/C (second compound 0.0316 µM, first compound 10 µM) of 122%. It also gave a viability, T/C [3] of 101%, a viability, T/C [4] of 96.2% and a viability, T/C (second compound 0.1 µM, first compound 0.316 µM) of 94.5%. For the same compound, the viability, T/C (second compound 0.1 µM, first compound 1 µM) was 104%, the viability, T/C (second compound 0.1 µM, first compound 3.16 µM) was 93.3% and the viability, T/C (second compound 0.1 µM, first compound 10 µM) was 118%. The viability, T/C [5] was 97.5%, the viability, T/C [6] was 92.3% and the viability, T/C (second compound 0.316 µM, first compound 0.316 µM) was 106%. The viability, T/C (second compound 0.316 µM, first compound 1 µM) was 93.6%, the viability, T/C (second compound 0.316 µM, first compound 3.16 µM) was 99% and the viability, T/C (second compound 0.316 µM, first compound 10 µM) was 123%. For the same compound, the viability, T/C [7] was 104%, the viability, T/C [8] was 112% and the viability, T/C (second compound 1 µM, first compound 0.316 µM) was 114%. For the same compound, the viability, T/C (second compound 1 µM, first compound 1 µM) was 92.9%, the viability, T/C (second compound 1 µM, first compound 3.16 µM) was 92.8% and the viability, T/C (second compound 1 µM, first compound 10 µM) was 109%. It also gave a viability, T/C (second compound 3.16 µM, first compound 0.0316 µM) of 102%, a viability, T/C (second compound 3.16 µM, first compound 0.1 µM) of 98.3% and a viability, T/C (second compound 3.16 µM, first compound 0.316 µM) of 89.7%. It also gave a viability, T/C (second compound 3.16 µM, first compound 1 µM) of 104%, a viability, T/C (second compound 3.16 µM, first compound 3.16 µM) of 93.7% and a viability, T/C (second compound 3.16 µM, first compound 10 µM) of 105%. For the same compound, the viability, T/C (second compound 10 µM, first compound 0.0316 µM) was 101%, the viability, T/C (second compound 10 µM, first compound 0.1 µM) was 91.5% and the viability, T/C (second compound 10 µM, first compound 0.316 µM) was 81.9%. For the same compound, the viability, T/C (second compound 10 µM, first compound 1 µM) was 91.6%, the viability, T/C (second compound 10 µM, first compound 3.16 µM) was 99.5% and the viability, T/C (second compound 10 µM, first compound 10 µM) was 101%.

For `Cn1ncnc1[C@H]1c2n[nH]c(=O)c3cc(F)cc(c23)N[C@@H]1c1ccc(F)cc1` + CNC(C)C(=O)NC1CN(S(=O)(=O)c2cccc(S(=O)(=O)N3CCC4CCC(C(=O)NC(c5ccccc5)c5ccccc5)N4C(=O)C(NC(=O)C(C)NC)C3)c2)CCC2CCC(C(=O)NC(c3ccccc3)c3ccccc3)N2C1=O, the pIC50 (second compound 0.00316 µM) was over 9.50, the pIC50 (second compound 0.01 µM) was under 7.00 and the pIC50 (second compound 0.0316 µM) was under 7.00. It also gave a pIC50 (second compound 0.1 µM) of under 7.00, a pIC50 (second compound 0.316 µM) of under 7.00 and a pIC50 (second compound 1 µM) of under 7.00. The viability, T/C (second compound 0.00316 µM, first compound 0.000316 µM) was 1.94%, the viability, T/C (second compound 0.00316 µM, first compound 0.001 µM) was 1.14% and the viability, T/C (second compound 0.00316 µM, first compound 0.00316 µM) was 0.66%. For the same compound, the viability, T/C (second compound 0.00316 µM, first compound 0.01 µM) was 1.15%, the viability, T/C (second compound 0.00316 µM, first compound 0.0316 µM) was 0.71% and the viability, T/C (second compound 0.00316 µM, first compound 0.1 µM) was 0.74%. The viability, T/C (second compound 0.01 µM, first compound 0.000316 µM) was 106%, the viability, T/C (second compound 0.01 µM, first compound 0.001 µM) was 100% and the viability, T/C (second compound 0.01 µM, first compound 0.00316 µM) was 102%. For the same compound, the viability, T/C (second compound 0.01 µM, first compound 0.01 µM) was 109%, the viability, T/C (second compound 0.01 µM, first compound 0.0316 µM) was 104% and the viability, T/C (second compound 0.01 µM, first compound 0.1 µM) was 120%. For the same compound, the viability, T/C (second compound 0.0316 µM, first compound 0.000316 µM) was 91.7%, the viability, T/C (second compound 0.0316 µM, first compound 0.001 µM) was 106% and the viability, T/C (second compound 0.0316 µM, first compound 0.00316 µM) was 91.9%. For the same compound, the viability, T/C (second compound 0.0316 µM, first compound 0.01 µM) was 97.1%, the viability, T/C [1] was 99.9% and the viability, T/C [2] was 95.5%. For the same compound, the viability, T/C (second compound 0.1 µM, first compound 0.000316 µM) was 106%, the viability, T/C (second compound 0.1 µM, first compound 0.001 µM) was 101% and the viability, T/C (second compound 0.1 µM, first compound 0.00316 µM) was 87.2%. It also gave a viability, T/C (second compound 0.1 µM, first compound 0.01 µM) of 95.1%, a viability, T/C [3] of 98.9% and a viability, T/C [4] of 94.6%. The viability, T/C (second compound 0.316 µM, first compound 0.000316 µM) was 76.5%, the viability, T/C (second compound 0.316 µM, first compound 0.001 µM) was 79.7% and the viability, T/C (second compound 0.316 µM, first compound 0.00316 µM) was 84.5%. It also gave a viability, T/C (second compound 0.316 µM, first compound 0.01 µM) of 107%, a viability, T/C [5] of 97.6% and a viability, T/C [6] of 85.4%. The viability, T/C (second compound 1 µM, first compound 0.000316 µM) was 69.5%, the viability, T/C (second compound 1 µM, first compound 0.001 µM) was 81.3% and the viability, T/C (second compound 1 µM, first compound 0.00316 µM) was 94.9%. For the same compound, the viability, T/C (second compound 1 µM, first compound 0.01 µM) was 86.4%, the viability, T/C [7] was 96.2% and the viability, T/C [8] was 95.5%.
